Assay results as given in patent US10945992B1, “Dosage forms of rofecoxib and related methods” (Tremeau Pharmaceuticals, Inc., priority 2019, dated 2021).
“Also recorded” adds a separate entry of the source. Read-outs that look alike come from different tables or passages of the source.

What was measured:
Solubility of rofecoxib = format: physicochemical
Protocol: In some embodiments, rofecoxib is a white to off-white to light yellow powder. […] The 50 mg tablets may also contain red ferric oxide. […] Added as preservatives are sodium methylparaben about 0.13% and sodium propylparaben about 0.02%.
https://www.ccdc.cam.ac.uk/structures/Search?Compound=Rofecoxib&DatabaseToSearch=Published). […] Rofecoxib has no ionizable moieties and cannot form salts; the solubility of rofecoxib cannot be increased by changing pH. Therefore, in some embodiments, rofecoxib is micronized in the final step of the manufacturing process in order to increase dissolution rate. Description of Manufacturing Process and Process Controls for Rofecoxib Tablets

[1] = target: cyclooxygenase-1 (COX-1) isoenzyme (Homo sapiens, UniProt P23219); conditions: at therapeutic concentrations; listed as rofecoxib; cited from earlier work
[2] = LC-MS/MS method validation: stability of rofecoxib; format: physicochemical, human
From the text: In order to support clinical studies with TRM-201 (rofecoxib), a method was developed for the determination of rofecoxib in human plasma by LC-MS/MS. This method was validated in accordance with the FDA Good Laboratory Practice Regulations (GLP) as set forth in Title 21 of the U S. Code of Federal Regulations Part 58 as well as FDA Guidance for Industry: Bioanalytical Method Validation, May 2018.

[3] = TRM-201-PK-102 safety: treatment-emergent adverse events; format: in vivo, human
From the text: The timing and frequency of all safety assessments was listed in the schedule of events (Table 19). Safety and tolerability included monitoring and recording of AEs, clinical laboratory assessments (hematology, serum chemistry, and urinalysis), vital sign measurements, 12-lead ECG assessments, and physical examination findings. […] If clinical significance was noted, the result and reason for significance were documented. Any abnormal laboratory test results (hematology, clinical chemistry, or urinalysis) or other safety assessments (e.g., ECGs, vital sign measurements), including those that worsen from baseline, felt to be clinically significant in the medical and scientific judgment of the investigator were to be recorded as AEs or SAEs.
The investigator was responsible for reporting all AEs that were observed or reported during the study, regardless of their relationship to study drug or their clinical significance. If there was any doubt as to whether a clinical observation was an AE, the event was reported. An AE was defined as any untoward medical occurrence in a subject enrolled into this study regardless of its causal relationship to study drug. Subjects were instructed to contact the investigator at any time after enrollment if any symptoms developed. A treatment-emergent AE (TEAE) was defined as any event not present before exposure to study drug or any event already present that worsens in either intensity or frequency after exposure to study drug.
All safety data were summarized. The incidence of adverse events was presented by the MedDRA system organ class and preferred term, relationship to the test article, and severity. Descriptive statistics of clinical laboratory results and vital signs were presented, as well as summaries of changes from baseline (from the Check-in visit(s)) and of clinically notable values. All AE data were presented in a data listing TEAEs were summarized overall, as well as by severity and relationship to study drug. Serious AEs and AEs leading to discontinuation of study drug were also presented in the data listings and summarized. Actual values and changes from Baseline for clinical laboratory test results, vital sign measurements, and 12-lead ECG results were summarized at each time point using descriptive statistics (number of subjects, mean, SD, median, minimum, and maximum).

cyclooxygenase-1 (COX-1) isoenzyme, sequence (P23219 24-599): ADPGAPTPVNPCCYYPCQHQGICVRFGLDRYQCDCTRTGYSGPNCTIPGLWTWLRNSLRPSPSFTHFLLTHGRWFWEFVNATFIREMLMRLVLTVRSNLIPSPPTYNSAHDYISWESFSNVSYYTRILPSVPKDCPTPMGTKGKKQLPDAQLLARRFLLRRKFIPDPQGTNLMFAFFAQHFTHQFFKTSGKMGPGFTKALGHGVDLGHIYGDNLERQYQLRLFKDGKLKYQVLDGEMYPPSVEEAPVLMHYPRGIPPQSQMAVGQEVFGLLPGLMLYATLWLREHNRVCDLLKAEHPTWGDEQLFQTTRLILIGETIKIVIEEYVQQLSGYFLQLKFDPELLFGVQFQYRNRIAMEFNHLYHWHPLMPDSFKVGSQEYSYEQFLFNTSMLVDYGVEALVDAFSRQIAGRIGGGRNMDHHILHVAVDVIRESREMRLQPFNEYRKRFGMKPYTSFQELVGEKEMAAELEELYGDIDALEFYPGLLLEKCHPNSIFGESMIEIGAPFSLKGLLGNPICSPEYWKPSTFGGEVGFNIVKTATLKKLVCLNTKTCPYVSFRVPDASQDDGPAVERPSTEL

CS(=O)(=O)c1ccc(C2=C(c3ccccc3)C(=O)OC2)cc1 [TRM-201, 4-[4-(methylsulfonyl)phenyl]-3-phenyl-2(5H)-furanone]
solubility (Solubility of rofecoxib; acetone): sparingly soluble
solubility (Solubility of rofecoxib; ethanol): very slightly soluble
solubility (Solubility of rofecoxib; isopropyl acetate): slightly soluble
solubility (Solubility of rofecoxib; methanol): slightly soluble
solubility (Solubility of rofecoxib; octanol): practically insoluble
solubility (Solubility of rofecoxib; water, listed as Rofecoxib): practically insoluble
solubility (Solubility of rofecoxib; water, listed as rofecoxib): insoluble
solubility (Solubility of rofecoxib; water, read-out: solubility in water): < 0.1 mg/mL
inhibition of COX-1 [1]: does not inhibit; also recorded: not cyclooxygenase 1 (COX-1)
Processed Sample Stability ([2]; at 4° C.): 174 Hours at 4 °C
Stock Solution Stability in Dimethyl Sulfoxide ([2]; at Ambient Temperature): 17 Hours at Ambient Temperature
Benchtop Stability in Plasma ([2]; at Ambient Temperature, human plasma): 26 Hours at Ambient Temperature
Stock Solution Stability in Dimethyl Sulfoxide ([2]; at −20° C.): 202 Days at −20 °C
Freeze/Thaw Stability in Plasma ([2]; at −20° C. and −70° C.): 5 Cycles at −20 °C and −70 °C
Long-term Storage Stability in Plasma ([2]; at −20° C. and −70° C.): 184 Days at −20 °C and −70 °C
Benchtop Stability in Whole Blood ([2]; in an Ice Bath when Centrifuged at 4° C. or Ambient Temperature): 2 Hours in an Ice Bath when
TEAE in preferred term ([3]; 12.5 mg): constipation
subjects who exhibited a TEAE ([3]; 12.5 mg): One
TEAE in preferred term ([3]; 25 mg): ear discomfort and headache
subjects who exhibited a TEAE ([3]; 25 mg): two
severity of all reported TEAE ([3]; 102 PK study): mild
related TEAE, serious TEAE, TEAE leading to study discontinuation, or severe TEAE ([3]; 102 PK study, all doses): No subjects
subjects who exhibited a TEAE, total ([3]; 102 PK study, all doses): three
incidence of TEAE leading to study discontinuation ([3]; at any dosage): no incidence
incidence of related TEAE ([3]; at any dosage): no incidence
incidence of serious TEAE ([3]; at any dosage): no incidence
